Molecules are shown by their SMILES. pIC50: −log10 of the molar value. Records with an inconclusive call do not appear.

This test addresses Virion infectivity factor (Human immunodeficiency virus type 1 group M subtype B (isolate BH10)) + Virion infectivity factor (Human immunodeficiency virus type 1 group M subtype B (isolate BRU/LAI)) + Virion infectivity factor (Human immunodeficiency virus type 1 group M subtype B (isolate PCV12)) + Virion infectivity factor (Human immunodeficiency virus type 1 group M subtype B (isolate HXB2)) + DNA dC->dU-editing enzyme APOBEC-3G (Homo sapiens) (UniProt P69720+P69721+P69722+P69723+Q9HC16). The test can be described thus: inhibitors of Vif binding to APOBEC3G peptide, primary screen, biochemical, TR-FRET, GST-Vif 1-94, biotin-A3G peptide, dose response retest (AID 1117319).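 Also: Vif residues 1-94 fused to GST binding biotinylated APOBEC3G peptide 110-148.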
On to `C/C(=C\C(=O)c1ccc(C)cc1)Nc1cccc(O)c1`, for which the pIC50 is 4.27.
The result for `O=C(COC(=O)Cc1ccc(Cl)cc1)NCc1ccco1` reads 5.13; that for `Cc1cc(C)n(CC(=O)NNC(=O)c2ccc(NC(=O)CC#N)cc2)n1`, 4.04; that for `Cc1cc(Cl)c(S(=O)(=O)NCC2CCCO2)cc1OCC(=O)NC1CCCCC1` (stereo unspecified), 4.11.
The result for `Cc1cc(C)cc(N(CC(=O)NCc2cccnc2)S(C)(=O)=O)c1` reads 4.44; that for `CNc1cccccc1=S`, 6.29; that for `Nc1cccc2cc(S(=O)(=O)O)ccc12`, 4.46.
Take `O=C(O)C1Cc2ccccc2N2CCCC12` (stereo unspecified): the negative-log IC50 (pIC50) is 4.82.
The result for `O=C(CCS(=O)(=O)c1ccc(Br)cc1)NCCc1ccccc1` reads 4.54; that for `CCC(=Nc1ccc(N)cc1)C1=C(O)C(C(=O)OC)C(C)(C)CC1=O` (stereo unspecified), 5.70.
The result for `CCOc1ccc(CCNC(=O)C2CC(C)=CCC2C(=O)O)cc1OCC` (stereo unspecified) reads 4.25; that for `CCOC(=O)c1c2c(n(Cc3ccccc3)c1C)C(=O)C(=O)c1ccccc1-2`, 4.10.
For the compound `COc1ccc(NC(=O)c2ccccc2NC(=O)CSc2ccc(Cl)cc2)cc1`, the negative logarithm of the IC50 (pIC50) is 4.24.
The result for `CCOC(=O)C(=O)NCc1ccc(/C=C2/N=C(C)C(C(=O)OCC)=C2O)o1` reads 5.21; that for `COc1cc(-c2cccs2)cc(=O)c2c(C)oc(C)c12`, 5.45; that for `O=C1CC(Nc2ccc(N3CCOCC3)cc2)C(=O)N1C1CCCCC1` (stereo unspecified), 5.56.
The result for `O=C(O)C1Nc2ccc(Br)cc2C2C=CCC12` (stereo unspecified) reads 5.81; that for `CCOC(=O)c1cnn2c(N)c(C#N)nnc12`, 4.67; that for `O=C(O)CCC(=O)N(Cc1cccs1)Cc1cccs1`, 4.10.
The result for `O=c1[nH]nc(CNc2ccc(O)cc2)c2ccccc12` reads 5.46; that for `CC(=O)OCCCNc1cc(Sc2nc3ccccc3s2)c2nonc2c1[N+](=O)[O-]`, 4.27.
In the case of `O=C(c1cc2n(n1)C(C(F)(F)F)CC(c1ccco1)N2)N1CCc2ccccc2C1` (stereo unspecified), the pIC50 is 4.48.
The result for `COc1ccc(NC(=O)/C(C#N)=C\c2ccc(Br)o2)cc1` reads 5.20; that for `Nc1nc(-c2ccco2)c(-c2ccco2)s1`, 6.08; that for `Cc1c(C(=O)O)cccc1-n1c(C)cc(/C=N/Nc2ccc([N+](=O)[O-])cn2)c1C`, 4.90.
The result for `Cc1cc(NC(=O)Cc2cccs2)no1` reads 5.41; that for `Cc1ccc(CNC(=O)COc2ccc3c(c2)CCC3)cc1`, 4.35; that for `COC/C=C/C1=CC2=CC(=O)C(C)(OC(=O)CCC(=O)OC)C(=O)C2=CO1` (stereo unspecified), 5.87.
The result for `Cc1ccc(N2C(=O)/C(=C/c3ccc(CN(CCC#N)S(C)(=O)=O)o3)C(=O)NC2=S)cc1` reads 5.08; that for `CO[C@H]1C=CO[C@@]2(C)Oc3c(C)c(O)c4c(O)c(c(C=NN5CCN(C)CC5)c(O)c4c3C2=O)NC(=O)C(C)=CC=C[C@H](C)[C@H](O)[C@@H](C)[C@@H](O)[C@@H](C)[C@H](OC(C)=O)[C@@H]1C`, 5.11; that for `CN1C(=O)/C(=C/c2cccn2-c2ccc3ccccc3c2)C(=O)NC1=S`, above 5.09.
Regarding `CCOC(=O)C1=C(O)/C(=C\c2ccc(CNC(=O)C(=O)Nc3ccccc3)o2)N=C1C`, the pIC50 was 5.73.
The result for `CCOc1ccccc1C(O)C1=CC(=O)c2ccccc2C1=O` (stereo unspecified) reads 5.12.
On to `O=C(Nc1ccn(-c2ccccc2)n1)c1ccccc1Br`, for which the pIC50 is 4.97.
The result for `Cc1cccc(N2C(=O)NC(=O)/C(=C/c3cc4c(cc3[N+](=O)[O-])OCO4)C2=O)c1` reads 4.23; that for `O=C(NCc1ccccc1Cl)c1csc2c1CCCCC2`, 5.08; that for `COC(=O)c1ccc(COc2ccccc2/C=C(\C#N)C(=O)Nc2c(C)cc(C)cc2C)cc1`, 4.64.
The result for `COc1cc(/C=C2/C(=O)c3cccc([N+](=O)[O-])c3C2=O)c(Br)cc1O` reads 4.49.
The result for `Oc1ccc(/C=N/N2CCCCC2)c(O)c1O` reads 4.72; that for `COC1=C(Br)C(=O)c2nc(C)ccc2C1=O`, 4.87; that for `CN(CC(=O)Nc1ccc(F)cc1)C(=O)c1cc(-c2ccco2)nc2ccccc12`, 5.26.
On to `CCC(Cc1ccccc1)NC(=O)C1CCN(S(=O)(=O)c2c(C)noc2C)CC1` (stereo unspecified), for which the pIC50 was 4.04.
The result for `Oc1ccc(N=Cc2sc3ccccc3c2Cl)cc1` reads 5.51; that for `COc1ccc2nc(NNC(=O)c3cc(=O)c4ccccc4o3)sc2c1`, 4.57; that for `CC1(CCl)N([O-])C2=C(CCCC2)[N+]1=O` (stereo unspecified), 5.07.
The result for `CC(=O)Nc1ccc(S(=O)(=O)N2CCN(Cc3ccccn3)CC2)cc1` reads 4.11; that for `CCCCN1C(=O)/C(=C/C=C/c2ccco2)C(=O)NC1=S`, 5.34.
The result for `Cn1cccc1/C=C1/C(=O)NC(=S)N(Cc2ccc(F)cc2)C1=O` reads 5.91.
As to `CCCCn1c(SCC(=O)NCc2ccco2)nc2ccc(N3CCOCC3)cc2c1=O`, the negative-log IC50 (pIC50) is 4.90.
The result for `Cc1ccc(-c2cc(-c3ccc4c(c3)OCO4)c(C#N)c(N)n2)o1` reads 5.15.
The result for `CCOC(=O)c1c(C)oc2c1c(C=NCc1ccccn1)c(O)c1ccccc12` reads 5.73.
The result for `CCN(CC)c1ccc(NC(=O)CCS(=O)(=O)c2ccc(Br)cc2)c(C)c1` reads 5.26; that for `N=C1/C(=C/c2ccc(Br)o2)C(=O)N=C2SC(CC(=O)N3CCCC3)=NN12`, 4.56.
On to `CC(C)OP(=O)(OC(C)C)C(O)c1ccc(N(C)C)cc1` (stereo unspecified), for which the negative logarithm of the IC50 (pIC50) is 4.12.
Regarding `CCn1c(SC(C)C(=O)O)nc2sc3c(c2c1=O)CCC3` (stereo unspecified), the pIC50 is 5.05.
With `COC(=O)C1=C(O)/C(=C\c2ccc(CNC(=O)C(=O)Nc3ccc(C)c(C)c3)o2)N=C1C`, the pIC50 is 4.47.
The result for `O=C(Nc1ccccc1-c1nnn(CC(=O)N2CCc3ccccc3C2)n1)C1CCC1` reads 4.04; that for `Nc1ccc(Oc2ncccn2)cc1`, 4.61.
The result for `N#Cc1c(NC(=O)CSc2ncnc3sccc23)oc(-c2ccco2)c1-c1ccco1` reads 6.02; that for `O=[N+]([O-])c1c(NCCCO)cc(SCc2ccco2)c2nonc12`, 5.33.
`Cc1ccc(OCCSc2nnc(-c3ccncc3)n2C)cc1`: the pIC50 was 4.12.
On to `CS(=O)(=O)N(CC(=O)Nc1ccc2c(c1)OCO2)Cc1ccccc1`, for which the pIC50 is 4.02.
The result for `C[c-]1[c-](C)[c-](C)[c-](C)[c-]1C.[Fe].c1cc2nccc(N3CCCC3)[c-]2c1` (stereo unspecified) reads 5.69; that for `CCn1c(COc2ccc3c(c2)OCO3)nnc1SCC(=O)c1ccc(Cl)cc1`, 4.11; that for `CCCCn1c(N)c(N(CCOC)C(=O)c2cc(-c3ccco3)nc3ccccc23)c(=O)[nH]c1=O`, 4.96.
The result for `CCOC(=O)c1ccc2c(c1)C1C=CCC1C(C(=O)O)N2` (stereo unspecified) reads 5.90; that for `CC(=O)c1cccc(NC(=O)c2cnn3ccccc23)c1`, 4.11.
The result for `Cc1ccc(N2CCN(c3ccc(C)cc3)C2c2ccccn2)cc1` reads 4.12; that for `COc1ccc2c3c(cccc13)N(C)N=C2C`, 5.37; that for `Cc1ccc(C(=O)Nc2ccc(O)c(C(=O)O)c2)o1`, 5.41.
Consider `Cc1cc(-c2csc(NC(=O)c3ccc(C#N)cc3)n2)c(C)n1Cc1ccco1`, for which the negative-log IC50 (pIC50) was 5.47.
The result for `O=C(Nc1cccc(C(F)(F)F)c1)c1ccc2nc(-c3ccco3)c(-c3ccco3)nc2c1` reads 6.16.
Turning to `CCOC(=O)c1sc2nc(CC(=O)OC)nc(NCc3ccco3)c2c1C`, the pIC50 is 5.61.
The result for `Cc1cc([N+](=O)[O-])cc2c1NC(c1ccccn1)C1CC=CC21` (stereo unspecified) reads 5.52; that for `Cc1ccc(/C=C/C2=Cc3c(sc(NC(=O)CSc4n[nH]c(N)n4)c3C#N)C(C)(C)C2)o1`, 6.10; that for `C[n+]1cccc2cccc([O-])c21`, 5.85.
The result for `O=C(CCCN1C(=O)/C(=C\c2ccco2)SC1=S)Nc1ccc2ccccc2c1` reads 5.14; that for `O=C(c1coc(=O)c(Br)c1)N1CCCc2ccccc21`, 4.61.
As for `CN(CC(=O)Nc1cccc(F)c1)C(=O)c1cccc(-n2cccc2)c1`, the negative logarithm of the IC50 (pIC50) is 5.09.
Turning to `COC1=CC(=O)C(C2CC(=O)c3c(O)cc(O)cc3O2)=CC1=O` (stereo unspecified), the negative-log IC50 (pIC50) is 4.82.
The result for `O=C1[C@@H]2C(Cc3ccc(O)cc3)NC3(C(=O)Nc4ccc(F)cc43)[C@@H]2C(=O)N1c1ccc(F)cc1` (stereo partly specified) reads 4.19; that for `COc1c(OC(C)=O)ccc(/C=C/c2ccc3ccccc3n2)c1[N+](=O)[O-]`, 4.01; that for `Oc1ccc(N=Cc2ccc(OCc3ccccc3)cc2)cc1`, 5.68.
The result for `COc1cc(/C=C/C=C2/CC/C(=C/C=C/c3ccc(O)c(OC)c3)C2=O)ccc1O` reads 5.39; that for `CCN(CC)c1ccc2c(c1)CCCN2`, 5.93.
Turning to `CC1(C)N([O-])c2cc([N+](=O)[O-])ccc2[N+]1=O`, the negative-log IC50 (pIC50) is 5.01.
On to `CC(C)CCNC(=O)c1ccc2c(SCC(=O)O)c3c(nc2c1)CCC3`, for which the pIC50 was 4.22.
The result for `N=C1S/C(=C\c2ccco2)C(=O)N1c1ccc2c(c1)OCO2` reads 5.03; that for `O=C1CCCC(O)=C1C=Nc1ccc(O)cc1`, 4.45.
With `O=C(CCS(=O)(=O)c1ccc(Br)cc1)N1CCN(c2ccc(F)cc2)CC1`, the pIC50 was 4.28.
The result for `CCOC(=O)C(=O)Cc1cccnn1` reads 6.19; that for `CCOC(=O)Cn1nnnc1C(C(C)C)N(Cc1cc2c(C)cc(C)cc2[nH]c1=O)C1CCCC1` (stereo unspecified), 4.34.
The result for `CCc1ccc(CC)c(S(=O)(=O)Nc2ccc(C(=O)O)c(O)c2)c1` reads 4.45; that for `O=C(c1cccc(-n2cccc2)c1)N1CCN(S(=O)(=O)c2ccccc2)CC1`, 4.76.
The result for `COc1ccc(/C=C(\NC(=O)c2ccc(OCC(C)C)cc2)C(=O)OCc2ccco2)cc1` reads 4.49; that for `CCn1c(SCC(=O)Nc2cc(C)on2)nnc1-c1cccnc1`, 5.02.
